`O=c1ccn([C@@H]2C[C@H](O)[C@@H](O)[C@H]2O)cc1` (racemic) yielded a melting point of 186 to 188 °C.

In the case of `CN1NC(=O)CC1c1ccccc1` (centres undefined), the melting point lay in the range of 160 to 161 °C.

Turning to `O=C(O)CNC(=O)c1cc(-c2ccc3c(c2)OCO3)c2c3c(ccc2c1)OCO3`, the melting point was 255 to 257 °C.

The compound `ClC(Cl)=NC(Cl)(Cl)C(Cl)(Cl)N=C(Cl)Cl` gave a melting point of 167 °C.

Compound `CC(=O)N1CCc2c(c3ccc(-n4ccc(-c5ccc(C(F)(F)F)nc5)cc4=O)nc3n2C)C1` displayed a melting point of 238 to 242 °C.

`OC(COc1ccccc1-c1cc[nH]n1)CN1CCN(c2ccc(Cl)cc2)CC1` (centres undefined) came in with a melting point of 120 to 121 °C.

For the compound `O=[N+]([O-])c1cc(C(F)(F)F)cc2nc(N3CCN(c4ncccc4C(F)(F)F)CC3)[nH]c12`, the melting point turned out to be 192 °C.

For `CCOC(=O)CCCN(C(=O)CN(C(=O)c1ccc(Cl)cc1)c1c(C)cccc1C)c1c(C)cccc1C`, the melting point lay within 150 to 151 °C.

As to `COc1cc(C(=O)c2nc(NS(C)(=O)=O)c3ccccn23)ccc1[N+](=O)[O-]`, the melting point came to 231 °C.

`Cc1occc(=O)c1OCc1ccccc1`: the melting point lay within 51 to 52 °C.

`COC(=O)c1cccc(Cn2ccc(OCc3ccc(F)cc3F)c(Br)c2=O)c1`: the melting point is 115 to 117 °C.

The compound `CCCn1c(=O)c2c(nc(C=Cc3ccc(C(=O)O)cc3)n2C)n(CCC)c1=O` came in with a melting point of 215 to 217 °C.

Turning to `COc1cc(C(=O)O)nc(-c2cccc([N+](=O)[O-])c2)c1`, the melting point is 207 to 210 °C.

As for `CCOc1cc2c3cc(OCC)c(OCC)cc3c3c(OC)ccc(OC)c3c2cc1OCC`, the melting point was 157 to 158 °C.

Turning to `Cc1ccc(C(=O)NN(C(=O)c2cc(Cl)sc2Cl)C(C)(C)C)cc1`, the melting point fell in the range of 163 to 165 °C.

Regarding `CCCCc1nn(-c2cc([N+](=O)[O-])ccc2Cl)c(=O)[nH]1`, the melting point lay within 145 to 147 °C.

In turn, `OCc1ccccc1C(F)(F)C(F)(F)c1ccccc1` displayed a melting point of 80 to 81 °C.

As to `O=C(O)C(=O)CC(=O)c1ccn(Cc2ccccc2)c1`, the melting point lay within 151 to 152 °C.

With `O=C(O)Cc1c(C(=O)O)c2cc(Oc3ccc(C(F)(F)F)cc3)ccc2n1-c1cccc(Cl)c1`, the melting point was 236 to 238 °C.

In turn, `O=C1c2cc(Br)ccc2COc2ccccc21` had a melting point of 104 to 106 °C.

As for `Cc1cccc(OCC2=NCCN2C(=S)N(C)C)c1C`, the melting point lay within 124 to 127 °C.

Compound `C[C@@H](NC(=O)c1sc(-c2ccc(Cl)cc2)cc1N)[C@](O)(Cn1cncn1)c1ccc(F)cc1F` yielded a melting point of 107 to 111 °C.

`CS(=O)(=O)N(CCc1ccccc1)CC(O)(Cn1cncn1)c1ccc(Cl)cc1Cl` (centres undefined): the melting point fell in the range of 138 to 140 °C.

`Cn1ccc2c(C(=O)c3ccccc3O)cccc21` showed a melting point of 80 °C.

`COc1cc(NC(C)=O)c(Cl)cc1C(=O)CCCCN1CCCCC1` registered a melting point of 74 to 75 °C.

Compound `CC1(C)Oc2ccc(C#N)cc2C(NC(=O)Nc2cccc(-c3ncco3)c2)C1O` (centres undefined) gave a melting point of 130 to 135 °C.

Compound `CCNC(=O)Cc1cc(Oc2ccc(C(F)(F)F)cc2Cl)ccc1[N+](=O)[O-]` displayed a melting point of 189 °C.

As to `COc1c2ccccc2c(-c2c(-c3c4ccccc4c(OC)c4ccccc34)c2=O)c2ccccc12`, the melting point fell in the range of 265 to 270 °C.

As to `ClCc1cc(-c2ccccc2)nc2ccccc12`, the melting point came to 79 °C.

`CCCCNC(=O)NS(=O)(=O)c1cc(I)ccc1C(=O)OC` showed a melting point of 128 to 130 °C.

With `c1ccc2cc(OC3CCC4(CCNCC4)CC3)ccc2c1`, the melting point lay within 132 to 134 °C.

With `CC(C)C[C@H](NC(=O)N1CCCCCC1)C(=O)OCc1ccccc1`, the melting point fell in the range of 79 to 82 °C.

Consider `O=c1[nH]c2cc(Sc3cccc4cnccc34)c([N+](=O)[O-])cc2[nH]1`, for which the melting point is more than 270 °C.

In the case of `Cc1cc(Cl)c(N)c(Cl)c1`, the melting point lay in the range of 50 to 52 °C.

(Values after a melting point compilation (Tetko et al.; mined from patent text by program, amines drawn as free bases though some values may be those of a salt).)
